From patent publication US8716558B2, “Method of altering glycosylation of proteins in response to nojirimycin glucuronide in a plant cell expressing glucuronidase” (Marker Gene Technologies, Inc., priority 1999, dated 2014) come the findings set out here.

Experiment [1] relates to LFY::luc transformed Arabidopsis thaliana ecotype Columbia. In words: Tissue selective ablation of meristem floral initiator cells. Format: in vivo. To be noted: 5 mM spray in 0.01% triton X-100, 2 times per day, 7-20 days. The source says: To test for induction of sterility and prevention of cross-pollination of recombinant plants, Arabiposis thaliana ecotype Columbia are transformed with a plasmid construct containing an LEAFY promoter (LFY) driven firefly luciferase (luc) gene by standard leaf disk techniques (Horsch, et al., 1988). The 2.3 kb BamHI fragment spanning the LFY promoter (Blazquez, et al., 1997) is inserted in front of the luc gene in plasmid pGL3 (available from Promega Corp., Madison, Wis.) using the BglII site. Transgenic plants are generated using the vacuum-filtration method of Berthold, et al. (Berthold, et al., 1993). Regenerated kanamycin-resistant T1 plants carrying LFY::luc are grown up in a greenhouse to allow seed to set. T2 seed of strongly expressing T1 lines are grown in sterile culture on MS medium containing kanamycin at 20° C. for 6 to 10 days in 16 hours light: 8 hours dark cycles and afterward in 12 hour light: 12 hour dark cycles. Plants are treated by spray application to the upper leaves and apical shoot sections, with 5 mM D-luciferin-bromoxynil in 0.01% aqueous triton X-100, 2 times per day, beginning on day 4, for a period of 7-20 days.

Experiment [2] concerns E. coli strains CSH23/S90C and CSH22/S90C. In words: Bacterial growth assay under non-inducing conditions (loss of activity upon conjugation). The following applies: 10 μg/ml 5FUR or 16.2 μg/ml M0174, M9 media, FIG. 1. Format: cell-based. As for the experimental part:
E. coli strains CSH23/S90C and CSH22/S90C were tested with 5-fluorouridine (5FUR) and the 5FUR-galactoside conjugate described in Example 16, 5-fluorouridine-5′-O-β-D-galactopyranoside, (M0174) to confirm loss of biological activity upon conjugation. CSH23 is a strain inducible for lacZ expression; CSH22 is a deletion mutant for lacZ and is therefore uninducible. Other strains with these properties are commercially available. When grown under non-inducing conditions, neither strain will produce β-galactosidase. Each strain was innoculated into 10 mL M9 minimal media and grown in non-inducing conditions, shaking at 37° C. overnight. Overnight cultures (500 μL) were transferred into […] fresh M9 media and grown to logarithmic phase for 4 hours prior to beginning the experiments. 1 mL of this culture was transferred to 10 ml fresh M9 media containing 10 μg/ml 5FUR, 16.2 μg/ml M0174, or no additions, and returned to the incubator. Growth curves were generated by removing aliquots of each culture at 30 minute intervals and reading absorbance at 420 nm. All final data was run in duplicate trials.

In experiment [3] the test system is E. coli CSH36/S90C and CSH22/S90C co-culture. In words: Co-culture bystander effect, colony growth on X-gal plates. Format: cell-based. To be noted: 10 μg/ml 5FUR or 16.2 μg/ml M0174, plated on X-gal. The procedure: E. coli strains CSH36/S90C and CSH22/S90C were grown in co-culture and tested with the 5FUR-galactoside conjugate described in Example 16, 5-fluorouridine-5′-O-β-D-galactopyranoside, (M0174) to show translocation of drug released in β-Gal expressing cells to other cells in the culture. CSH36 is a constitutive mutant for lacZ and therefore produces β-galactosidase regardless of induction conditions. CSH22 is a deletion mutant for lacZ and is therefore uninducible. Each strain individually and both strains together were innoculated into 10 mL aliquots of M9 minimal media and grown shaking at 37° C. overnight. Overnight cultures (500 μL) were transferred into 10 mL fresh M9 media and grown to logarithmic phase for 4 hours prior to beginning the experiments. 1 mL of this culture was transferred to 10 ml fresh M9 media containing 10 μg/ml 5-fluorouridine (5FUR), 16.2 μg/ml M0174, or no additions, and returned to the incubator. Growth curves were generated by removing aliquots of each culture at 30 minute intervals and reading absorbance at 420 nm. Remaining portions of these cultures were allowed to grow overnight, and final absorbance readings were taken. […] Plates were incubated at 37° C. for 48 hours, then evaluated for growth of white (indicating lacZ −, CSH22 cells) and blue (indicating lacZ+, CSH36 cells) colonies.

Experiment [4] concerns D5 tumor cells lipofected with a lacZ containing vector. In words: In vivo pulmonary tumor growth, lipofected tumor cells. The arrangement: species or system C57/J(B6) mice. As for the experimental part: To test the efficacy of pro-drug delivery in vivo for initiation and mediation of a host cellular immune response to genetically modified tumor, C57/J(B6) mice (22-36 g each) are injected intravenous with 50 μL HBBS containing 1×10^6 D5 tumor cells that are either untreated, lipofected with a vector containing the lacZ gene, lipofected with a vector containing both the lacZ and the H-2K allogeneic major histocompatability complex (MHC) class I gene (Wahl, et al, 1995), or lipofected with a vector containing the H-2K gene alone. After 2 days, accumulation of the tumor cells in the lung tissue is expected. Two animals are retained as controls, and necropsy examination and tumor staining of the lipofected animals is performed at the end of the trial, to confirm pulmonary tumor growth.
The doxorubicin-galactoside pro-drug of Example 19 is administered intraperitoneally starting at Day 3, for 20 days, to mice that received lipofected tumor cells in doses of either 5, 10 or 25 mg/kg/day, and to mice that received untreated tumor cells in doses of 50 mg/kg/day. Measurement of tumor growth is determined by necropsy examination of lung tissue and staining at day 25.

Experiment [5] deals with D5 murine melanoma cells lipofected with pCMVβ (lacZ). Briefly: MTT cell proliferation assay, lacZ-lipofected tumor cells. Format: cell-based. The procedure: (§1) For the MTT assay, cells are incubated with the MTT reagent, which is turned over by live cells to a purple MTT formazan product. Turnover is directly proportional to the number of live cells, enabling a proportional measurement of the number of cells to be achieved by measuring the production of MTT formazan. Media is removed from cells in the twelve well plate and replaced with DME containing 10 mM Hepes. 0.25 mL of a 2 mg/ml solution of MTT is then added to each well, and plates are covered and wrapped with aluminum foil and incubated at 37° C. for three hours. Plates are then emptied of the media MTT solution, and 1 mL of DMSO and 125 μL of Sorensens glycine buffer are added to each well to solubilize the MTT formazan product. Absorbence of each sample is measured against a DMSO blank at 570 nm.
(§2) Lipofection of D5 murine melanoma cells with the pCMVβ plasmid containing the lacZ gene provided a lacZ positive set of cells with transient but high levels of ? -galactosidase expression. A 60 mm plate of D5 cells, 80% confluent, was lipofected for 5 hours with 3.6 μg/ml pCMVB (a plasmid containing the lacZ gene)(CLONTECH) using 36 μL lipofectAmine reagent (Life Technologies, Gibco BRL). After lipofection, fresh media was added to the cells to dilute the lipofection reagent, and cells were grown for 2 days. A cover slip of the lipofected D5 cells was stained with X-gal and transfection efficiency was estimated at 70%. D5 and lipofected D5 cells were plated in 12 well plates at a density of 12×10^3 cells per well and incubated 6 hours. The 5FUR-galactoside conjugate described in Example 16, 5-fluorouridine-5′-O-β-D-galactopyranoside (M0174) was added to cells at various concentrations and cells were incubated 6 hours, after which the media was changed. Cells were allowed to grow another 36 hours, then the MTT assay was performed to estimate the number of living cells per well. Cell numbers were expressed as a percent of the number of cells in the control well. All assay points were performed in duplicate and averaged. […]

A further experiment concerns D5 murine melanoma cells. Briefly: MTT cell proliferation assay, non-lipofected tumor cells. Format: cell-based. As for the experimental part: as §1, §2
For orientation: Tetrazolium assays rely on reduction of a dye to a coloured formazan, in cell work by metabolically active cells.

The test system of experiment [6] is D5 mouse melanoma tumors (untreated cells). Briefly: In vivo growth of subcutaneous tumors from non-lipofected cells. The arrangement: species or system C57/J(B6) mice. The following applies: 100 mg/Kg/Day intraperitoneally for 4 days from Day 3. As for the experimental part:
(§3) The 5FUR-galactoside conjugate described in Example 16, 5-fluorouridine-5′-O-β-D-galactopyranoside (M0174) was tested to determine the reduction of tumor growth of subcutaneously implanted D5 mouse melanoma tumors that had been lipofected with a vector containing the lacZ marker gene in mice. […] C57/J(B6) mice (22-36 g each) were injected in the right flank with 50 μL HBBS containing 1×10^6D5 tumor cell that were either untreated or lipofected with a vector containing the lacZ gene. M0174 was administered intraperitoneally starting at Day 3, for 4 days, to mice that had received lipofected tumor cells in doses of either 25 or 50 mg/kg/day, and to mice that had received untreated tumor cells in doses of 100 mg/kg/day. Measurement of tumor area in mm^2 began on Day 8 and ended on Day 26. […] NO EFFECT (i.e. no significant drug release) for pro-drug on non-lipofected cells was found (even at 100 mg/Kg/Day), indicating once again a lack of biological activity for the pro-drug, M0174.

Experiment [7] has as its system D5 mouse melanoma tumors lipofected with a lacZ vector. In words: In vivo growth of subcutaneous tumors from lacZ-lipofected cells. More on the design: species or system C57/J(B6) mice. To be noted: 25 and 50 mg/Kg/Day intraperitoneally for 4 days from Day 3. The procedure:
as §3

The test system of experiment [8] is E. coli W3110 (inducible for lacZ). In words: Bacterial growth with ONPG with or without IPTG induction. The experiment is classed as cell-based. The following applies: 0.3 mg/ml ONPG. The procedure: (§4) E. coli strains CSH36 and W3110 available from the ATCC, Manassas, Va. were tested with orthonitrophenyl β-D-galactopyranoside (ONPG), according to the procedure of Marsh, 1994, to confirm release of compound upon induction of β-galactosidase production. W3110 is a wild-type E. coli strain inducible for lacZ expression; CSH36 is a constitutive mutant for lacZ and therefore produces β-galactosidase regardless of induction conditions. Each strain was innoculated into 10 mL M9 minimal media and grown in non-inducing conditions, shaking at 37° C. overnight. W3110 was also innoculated into 10 mL M9 media containing 0.3 mM iso-propyl thiogalactoside (IPTG) (W3110i) to induce β-galactosidase production. Overnight cultures (500 μL) were transferred into 10 mL fresh M9 media (+/−IPTG) and grown to logarithmic phase for 4 hours prior to beginning the experiments. 1 mL of this culture was transferred to 10 ml fresh M9 media (+/−IPTG) containing 0.3 mg/ml ONPG or no additions, and returned to the incubator. Growth curves were generated by removing aliquots of each culture at 30 minute intervals and reading absorbance at 420 nm. All final data was run in duplicate trials (A and B). […] ONP is also toxic to the bacteria, and therefore growth was retarded in those cultures producing β-galactosidase and turning over ONPG to ONP (see below and FIG. 2).

For experiment [9], the system named is E. coli CSH36 (constitutive mutant for lacZ). In words: Bacterial growth with ONPG. The following applies: CSH36, no IPTG, 0.3 mg/ml ONPG. Format: cell-based. The procedure:
as §4

For `N#Cc1cc(Br)c(OCC2SC(c3nc4ccc(O)cc4s3)=N[C@H]2C(=O)O)c(Br)c1` (stereo partly drawn) [D-luciferin-bromoxynil, D-2-(6′-Hydroxybenzothiazol-2′-yl)-D2-5-(2,6-dibromo-4-cyanophenoxy)methylthiazoline-4-carboxylic acid], the “floral initiation in apical shoot meristem” value in experiment [1] is given as “no transition to floral initiation”.
With `O=c1[nH]c(=O)n([C@@H]2O[C@H](CO)[C@@H](O)[C@H]2O)cc1F` [Example 5FUR, 5-fluorouridine, reference compound], in experiment [2], the “effect on growth (growth curves, absorbance at 420 nm)” value was “significant decrease in growth”. In addition, the “colony growth after overnight co-culture” value in [3] was “no growth of either cell type”.
Regarding `COc1cccc2c1C(=O)c1c(O)c3c(c(OC4OC(CO)C(O)C(O)C4O)c1C2=O)C[C@@](OC1OC(CO)C(O)C(O)C1O)(C(C)=O)C[C@@H]3OC1CC(N)C(OC2OC(CO)C(O)C(O)C2O)CO1` (stereo partly shown) [Example 19], in experiment [4] (5, 10 or 25 mg/kg/day intraperitoneally for 20 days from Day 3), the “tumor growth in lung tissue (necropsy and staining at day 25)” value is “Tumor regression”. The tumor burden entry in [4] (animals receiving both lacZ and H-2K gene) is recorded as “lower tumor burden”.
Regarding `O=c1[nH]c(=O)n([C@@H]2O[C@H](CO[C@@H]3O[C@H](CO)[C@H](O)[C@H](O)[C@H]3O)[C@@H](O)[C@H]2O)cc1F` [Example M0174, 5-Fluorouridine-5′-O-β-D-Galactopyranoside], the “effect on growth (growth curves, absorbance at 420 nm)” value in experiment [2] is “very little effect”. In addition, the activity at 0.3 µg/mL in experiment [5] (Mus musculus, 0.3 ug/ml, 6 hours exposure, MTT after another 36 hours, read-out: D5 lipofected, % of control growth) turned out to be 48%; in the experiment with D5 murine melanoma cells (Mus musculus, 0.3 ug/ml, 6 hours exposure, MTT after another 36 hours, read-out: D5 % of control growth), 110%. In addition, the activity at 5 µg/mL is 22% in experiment [5] (Mus musculus, 5 ug/ml, 6 hours exposure, MTT after another 36 hours, read-out: D5 lipofected, % of control growth) and 87.9% with D5 murine melanoma cells (Mus musculus, 5 ug/ml, 6 hours exposure, MTT after another 36 hours, read-out: D5 % of control growth). The “effect on cell growth” value in experiment [5] (lipofected D5 cells) is recorded as “growth inhibited”; in the experiment on D5 murine melanoma cells (non-lipofected cells, even at high dosage values) it was “unaffected”. The “tumor growth (tumor area in mm^2, Day 8 to Day 26)” value in [6] is given as “NO EFFECT”; in experiment [7] it was “slight delay in tumor growth”. The “colony growth after overnight co-culture” value in experiment [3] is recorded as “no growth of either cell type”.
Regarding `O=[N+]([O-])c1ccccc1O[C@@H]1O[C@H](CO)[C@H](O)[C@H](O)[C@H]1O` [ONPG, orthonitrophenyl β-D-galactopyranoside], the “Doubling Time” value in [8] (W3110, 0.3 mM IPTG) was determined as 215 min. In experiment [8] (W3110, no IPTG), the “Doubling Time” value was 92 min. Besides, in [9], the “Doubling Time (min)” value is “*not measurable” and the “time after start of experiments at which growth halted” value is “*growth halted approximately 2 hours after start of experiments”.
